Assays:
[1] = biological target: T1, p110 delta (Homo sapiens, UniProt O00329); assay: PI3K isoform inhibition assay (fluorescence polarization), p110 delta; type: biochemical; details: Ki apparent, Morrison equation; 25 μM ATP, 10 μM PIP2
T1 construct: purchased Upstate Group, Millipore; Dundee, UK
Experimental: (§1) Determination of the activity of PI3 kinase activity of Formula I compounds is possible by a number of direct and indirect detection methods.
(§2) PI3K enzymatic activity was assayed by measuring the amount of product phosphatidylinositol 3,4,5-phosphate (PIP3) formed from substrate 4,5 phosphatidylinositol 4,5-phosphate (PIP2) using a fluorescence polarization displacement assay. The decrease in fluorescence polarization of a fluorescent PIP3 probe is measured as it is displaced from a PIP3-binding protein GRP-1 detector by PI3K-catalyzed product. […] The kinase reactions were initiated by the addition of 40 ng/mL p110α/p85α, 300 ng/mL p110β/p85α, 40 ng/mL p110γ, or 40 ng/mL p110δ/p85α (Upstate Group, Millipore; Dundee, UK), and 10 μM PIP2 (Echelon Biosciences) to the wells. […] After 60 minutes of incubation at room temperature to allow equilibration of labeled and unlabeled PIP3 binding, the parallel and perpendicular components of the fluorescence emissions from each sample were measured at an excitation wavelength of 530 nm and an emission wavelength of 590 nm using an Envision fluorescent plate reader with a rhodamine filter (PerkinElmer Life and Analytical Sciences; Wellesley, Mass.). The assay is capable of detecting 0.1-2.0 μM PIP3 product. The Ki apparent values were obtained by fitting the dose-dependent inhibition data to the Morrison equation for tight-binding, competitive inhibitors. Reference: R. A. Copeland, Enzymes. “A Practical Introduction to Structure, Mechanism and Data Analysis”.
The Formula I compound was serially diluted in 100% DMSO. The kinase reaction was incubated for 1 h at room temperature, and the reaction was terminated by the addition of PBS. IC50 values were subsequently determined using sigmoidal dose-response curve fit (variable slope). […]

[2] = biological target: T2, p110 alpha (Homo sapiens, UniProt P42336); assay: PI3K isoform inhibition assay (fluorescence polarization), p110 alpha; type: biochemical; details: delta/alpha selectivity ratio
T2 construct: purchased Upstate Group, Millipore; Dundee, UK
T2 sequence (P42336 whole entry, species assumed, canonical isoform): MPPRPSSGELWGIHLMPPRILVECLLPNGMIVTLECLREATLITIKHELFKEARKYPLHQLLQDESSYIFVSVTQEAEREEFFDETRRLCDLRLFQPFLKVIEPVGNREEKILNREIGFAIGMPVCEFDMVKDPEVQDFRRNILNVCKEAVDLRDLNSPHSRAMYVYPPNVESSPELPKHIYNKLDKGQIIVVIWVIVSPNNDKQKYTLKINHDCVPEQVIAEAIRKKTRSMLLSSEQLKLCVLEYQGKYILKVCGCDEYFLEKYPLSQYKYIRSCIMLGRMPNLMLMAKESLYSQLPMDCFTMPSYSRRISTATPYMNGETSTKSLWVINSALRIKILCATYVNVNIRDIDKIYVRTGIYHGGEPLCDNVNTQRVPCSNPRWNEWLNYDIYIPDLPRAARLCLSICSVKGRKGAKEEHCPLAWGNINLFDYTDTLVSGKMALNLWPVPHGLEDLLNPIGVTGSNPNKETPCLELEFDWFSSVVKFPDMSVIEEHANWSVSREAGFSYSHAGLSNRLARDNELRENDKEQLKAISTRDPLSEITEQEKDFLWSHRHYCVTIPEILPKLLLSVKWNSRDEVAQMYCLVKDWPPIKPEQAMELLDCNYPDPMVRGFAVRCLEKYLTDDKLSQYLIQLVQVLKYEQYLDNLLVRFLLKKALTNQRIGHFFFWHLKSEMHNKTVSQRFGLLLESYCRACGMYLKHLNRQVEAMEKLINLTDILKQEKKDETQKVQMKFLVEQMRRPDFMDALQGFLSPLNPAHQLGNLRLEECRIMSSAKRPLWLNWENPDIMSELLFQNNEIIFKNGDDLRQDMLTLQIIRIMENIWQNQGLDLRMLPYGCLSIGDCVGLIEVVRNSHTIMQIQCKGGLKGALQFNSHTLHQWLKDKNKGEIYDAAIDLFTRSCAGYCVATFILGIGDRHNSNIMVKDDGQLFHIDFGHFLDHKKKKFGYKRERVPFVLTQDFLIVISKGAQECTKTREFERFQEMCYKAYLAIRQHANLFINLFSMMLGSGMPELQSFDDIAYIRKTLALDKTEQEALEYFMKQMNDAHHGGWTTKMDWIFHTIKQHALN
T2 sequence (P27986 whole entry partner, species assumed, canonical isoform): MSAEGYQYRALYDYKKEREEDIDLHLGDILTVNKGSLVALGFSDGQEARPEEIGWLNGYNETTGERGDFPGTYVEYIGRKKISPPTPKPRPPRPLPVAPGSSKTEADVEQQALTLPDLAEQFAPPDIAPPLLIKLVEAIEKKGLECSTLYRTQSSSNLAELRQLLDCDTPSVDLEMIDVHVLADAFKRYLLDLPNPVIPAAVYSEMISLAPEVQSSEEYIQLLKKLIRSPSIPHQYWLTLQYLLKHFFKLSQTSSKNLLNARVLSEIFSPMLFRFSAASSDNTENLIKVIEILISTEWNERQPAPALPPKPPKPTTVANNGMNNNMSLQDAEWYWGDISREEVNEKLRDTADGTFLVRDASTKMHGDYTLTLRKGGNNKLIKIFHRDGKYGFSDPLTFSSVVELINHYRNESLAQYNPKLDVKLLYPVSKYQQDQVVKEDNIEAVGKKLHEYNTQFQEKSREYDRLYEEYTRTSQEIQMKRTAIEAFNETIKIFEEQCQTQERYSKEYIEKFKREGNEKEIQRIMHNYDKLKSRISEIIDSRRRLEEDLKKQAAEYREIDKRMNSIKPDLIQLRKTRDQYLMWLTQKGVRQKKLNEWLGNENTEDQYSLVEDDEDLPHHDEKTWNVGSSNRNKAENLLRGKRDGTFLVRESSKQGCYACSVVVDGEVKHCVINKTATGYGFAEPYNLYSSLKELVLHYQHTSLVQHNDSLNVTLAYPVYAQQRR
Experimental: as §1, §2
The same protocol may be used to establish Ki values for p110α (alpha) PI3K binding.
The four Class I PI 3-kinases are cloned into baculovirus vectors as follows: […]

[3] = test system: production of CD69 by B lymphocytes in human whole blood; assay: CD69 Whole Blood Assay; type: cell-based; details: Lymphocyte; human whole blood activated with goat F(ab')2 anti-human IgM, 20 hours
Text: There is good evidence that B-cells play a key role in the pathogenesis of autoimmune and/or inflammatory disease. Protein-based therapeutics that deplete B cells such as Rituxan are effective against autoantibody-driven inflammatory diseases such as rheumatoid arthritis (Rastetter et al. (2004) Annu Rev Med 55:477). CD69 is the early activation marker in leukocytes including T cells, thymocytes, B cells, NK cells, neutrophils, and eosinophils. The CD69 human whole blood assay (Example 903) determines the ability of compounds to inhibit the production of CD69 by B lymphocytes in human whole blood activated by crosslinking surface IgM with goat F(ab′)2 anti-human IgM.
Human blood is obtained from healthy volunteers, with the following restrictions: 1 week drug-free, non-smokers. Blood (approximately 20 mls to test 8 compounds) is collected by venipuncture into Vacutainer tubes with sodium heparin.
Solutions of Formula I compounds at 1000 or 2000 μM in PBS (20×), are diluted by three-fold serial dilutions in 10% DMSO in PBS for a nine point dose-response curve. An aliquot of 5.5 μl of each compound is added in duplicate to a 2 ml 96-well plate; 5.5 μl of 10% DMSO in PBS is added as control and no-stimulus wells. Human whole blood—HWB (100 μl) is added to each well. After mixing the plates are incubated at 37° C., 5% CO2, 100% humidity for 30 minutes. Goat F(ab′)2 anti-human IgM (10 μl of a 500 μg/ml solution, 50 μg/ml final) is added to each well (except the no-stimulus wells) with mixing and the plates are incubated for an additional 20 hours. At the end of the 20 hour incubation, samples are incubated with fluorescent labeled antibodies for 30 minutes, at 37° C., 5% CO2, 100% humidity. Include induced control, unstained and single stains for compensation adjustments and initial voltage settings. Samples are then lysed with Pharmingen Lyse™ according to the manufacturer's instructions. Samples are then transferred to a 96 well plate suitable to be run on the AMS 96 well system on the BD Calibur FACS cell sorter instrument. Data acquired and Mean Fluorescence Intensity values were obtained using Cell Quest Software. Results are initially analyzed by FACS analysis software (Flow Jo). The IC50 values are calculated by ActivityBase™ using Xlfit™ version 3, equation 201.

T1 sequence (O00329 whole entry, canonical isoform): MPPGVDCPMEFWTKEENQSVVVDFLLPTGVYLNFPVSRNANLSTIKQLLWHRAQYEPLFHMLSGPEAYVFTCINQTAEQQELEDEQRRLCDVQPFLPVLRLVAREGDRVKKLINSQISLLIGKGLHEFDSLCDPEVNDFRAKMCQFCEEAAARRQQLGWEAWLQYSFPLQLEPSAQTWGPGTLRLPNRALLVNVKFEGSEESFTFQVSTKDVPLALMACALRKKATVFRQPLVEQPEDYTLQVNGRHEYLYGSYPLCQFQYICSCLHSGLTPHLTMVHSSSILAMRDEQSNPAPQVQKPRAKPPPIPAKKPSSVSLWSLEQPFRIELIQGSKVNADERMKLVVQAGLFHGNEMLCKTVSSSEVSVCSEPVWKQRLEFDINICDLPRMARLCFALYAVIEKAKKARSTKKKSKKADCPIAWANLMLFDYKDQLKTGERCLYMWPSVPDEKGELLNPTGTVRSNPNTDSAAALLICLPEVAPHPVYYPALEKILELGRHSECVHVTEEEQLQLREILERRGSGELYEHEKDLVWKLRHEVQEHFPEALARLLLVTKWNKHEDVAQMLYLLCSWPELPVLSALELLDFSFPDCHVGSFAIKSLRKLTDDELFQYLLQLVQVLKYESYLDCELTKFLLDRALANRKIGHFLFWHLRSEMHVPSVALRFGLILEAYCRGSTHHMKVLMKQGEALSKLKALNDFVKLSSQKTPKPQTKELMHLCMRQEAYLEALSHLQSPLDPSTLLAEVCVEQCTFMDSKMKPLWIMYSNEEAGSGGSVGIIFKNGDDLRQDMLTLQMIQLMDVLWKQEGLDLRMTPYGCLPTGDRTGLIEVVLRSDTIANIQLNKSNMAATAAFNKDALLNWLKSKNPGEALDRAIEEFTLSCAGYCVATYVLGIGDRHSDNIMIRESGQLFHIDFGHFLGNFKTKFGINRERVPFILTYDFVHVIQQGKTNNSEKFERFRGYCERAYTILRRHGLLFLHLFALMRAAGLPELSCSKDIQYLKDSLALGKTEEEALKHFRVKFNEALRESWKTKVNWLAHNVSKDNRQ
T1 sequence (P27986 whole entry partner, canonical isoform): as the sequence (P27986 whole entry partner, species assumed, canonical isoform) above

Row | Compound | Ki [1] | Ki p110 alpha/ Ki p110 delta [2] | IC50 [3]
1 | CC(C)c1nc2ccccc2n1-c1nc(N2CCOCC2)c2nc(OC3CN(CC(C)(C)O)C3)n(C)c2n1 [Compound 105, 1-(3-(2-(2-isopropyl-1H-benzo[d]imidazol-1-yl)-9-methyl-6-morpholino-9H-purin-8-yloxy)azetidin-1-yl)-2-methylpropan-2-ol] | 2.03 nM | 93 | 28.1 nM
2 | CC(C)c1nc2ccccc2n1-c1nc(N2CCOCC2)c2nc(OC3CN(C4CCS(=O)(=O)CC4)C3)n(C)c2n1 [Compound 103, 4-(2-(2-isopropyl-1H-benzo[d]imidazol-1-yl)-9-methyl-8-(1-(1,1-dioxo-tetrahydro-2H-thiopyran-4-yl)azetidin-3-yloxy)-9H-purin-6-yl)morpholine] | 0.464 nM | 256 | 3 nM
3 | CCc1nc2ccccc2n1-c1nc(N2CCOCC2)c2nc(OC3CCN(C4CCOCC4)CC3)n(C)c2n1 [Compound 101, 4-(2-(2-ethyl-1H-benzo[d]imidazol-1-yl)-9-methyl-8-(1-(tetrahydro-2H-pyran-4-yl)piperidin-4-yloxy)-9H-purin-6-yl)morpholine] | 1.84 nM | 78 | 35.4 nM
4 | CCc1nc2ccccc2n1-c1nc(N2CCOCC2)c2nc(OC3CNC3)n(C)c2n1 [Compound 133, 4-(8-(azetidin-3-yloxy)-2-(2-ethyl-1H-benzo[d]imidazol-1-yl)-9-methyl-9H-purin-6-yl)morpholine] | 8.53 nM | 27 | 10.8 nM
5 | CC(C)C(=O)N1CC(Oc2nc3c(N4CCOCC4)nc(-n4c(C(C)C)nc5ccccc54)nc3n2C)C1 [Compound 107, 1-(3-(2-(2-isopropyl-1H-benzo[d]imidazol-1-yl)-9-methyl-6-morpholino-9H-purin-8-yloxy)azetidin-1-yl)-2-methylpropan-1-one] | 0.38 nM | 173 | 8.3 nM
6 | CCc1nc2ccccc2n1-c1nc(N2CCOCC2)c2nc(OC3CN(C(=O)C(C)C)C3)[nH]c2n1 [Compound 128, 1-(3-(2-(2-ethyl-1H-benzo[d]imidazol-1-yl)-6-morpholino-9H-purin-8-yloxy)azetidin-1-yl)-2-methylpropan-1-one] | 0.629 nM | 141 | 15.9 nM
7 | CC(C)C(=O)N1CC(Oc2nc3c(N4CCOCC4)nc(-n4c(N(C)C)nc5ccccc54)nc3n2C)C1 [Compound 131, 1-(3-(2-(2-(dimethylamino)-1H-benzo[d]imidazol-1-yl)-9-methyl-6-morpholino-9H-purin-8-yloxy)azetidin-1-yl)-2-methylpropan-1-one] | 3.65 nM | 180 | 14.6 nM
8 | CCc1nc2ccccc2n1-c1nc(N2CCOCC2)c2nc(OC3CN(C(=O)[C@@H](C)OC)C3)n(C)c2n1 [Compound 117, (R)-1-(3-(2-(2-ethyl-1H-benzo[d]imidazol-1-yl)-9-methyl-6-morpholino-9H-purin-8-yloxy)azetidin-1-yl)-2-methoxypropan-1-one] | 0.503 nM | 132 | –
9 | CCc1nc2ccccc2n1-c1nc(N2CCOCC2)c2nc(OC3CN(C(=O)C(C)(C)O)C3)n(C)c2n1 [Compound 115, 1-(3-(2-(2-ethyl-1H-benzo[d]imidazol-1-yl)-9-methyl-6-morpholino-9H-purin-8-yloxy)azetidin-1-yl)-2-hydroxy-2-methylpropan-1-one] | 2.22 nM | 70 | –
10 | CCc1nc2ccccc2n1-c1nc(N2CCOCC2)c2nc(OC3CCN(C(=O)C(C)(C)O)CC3)n(C)c2n1 [Compound 112, 1-(4-(2-(2-ethyl-1H-benzo[d]imidazol-1-yl)-9-methyl-6-morpholino-9H-purin-8-yloxy)piperidin-1-yl)-2-hydroxy-2-methylpropan-1-one] | 1.4 nM | 122 | –
11 | CN(C)c1nc2ccccc2n1-c1nc(N2CCOCC2)c2nc(OC3CN(C4CCS(=O)(=O)CC4)C3)n(C)c2n1 [Compound 137, N,N-dimethyl-1-(9-methyl-6-morpholino-8-(1-(1,1-dioxo-tetrahydro-2H-thiopyran-4-yl)azetidin-3-yloxy)-9H-purin-2-yl)-1H-benzo[d] imidazol-2-amine] | 4.73 nM | 121 | –

From US8293736B2, “Purine compounds selective for PI3K P110 delta, and methods of use” (F. Hoffmann la Roche AG, priority 2010, dated 2012)
